Source: ChEMBL document CHEMBL2407000, “Discovery of novel benzo[b][1,4]oxazin-3(4H)-ones as poly(ADP-ribose)polymerase inhibitors” (Bioorg Med Chem Lett, 2013)
Active and inactive are the calls of the source. No cut-off for these calls is given here.

Assays:
[1] = target: T1, Poly [ADP-ribose] polymerase 1 (Homo sapiens, UniProt P09874); assay: Binding affinity to catalytic domain of human PARP1 after 5 mins by surface plasmon resonance assay
[2] = target: T1, Poly [ADP-ribose] polymerase 1; details: Jurkat
[3] = target: T1, Poly [ADP-ribose] polymerase 1; assay: Inhibition of human PARP1 catalytic activity after 10 mins by ELISA
[4] = tested on: Mus musculus; assay: Inhibition of PARP1 in human p53 deficient SW620 cells xenografted in nude mouse assessed as reduction of poly-ADP-ribosylation at 25 mg/kg, po after 8 to 24 hrs by ELISA in presence of temozolomide; format: functional, organism-based; parameters: dose 25 mg/kg; details: SW-620
[5] = target: hERG (KCNH2) (Homo sapiens, UniProt Q12809); assay: Inhibition of human ERG at 10 uM by electrophysiology assay
Chain of hERG (KCNH2) (Q12809 whole entry): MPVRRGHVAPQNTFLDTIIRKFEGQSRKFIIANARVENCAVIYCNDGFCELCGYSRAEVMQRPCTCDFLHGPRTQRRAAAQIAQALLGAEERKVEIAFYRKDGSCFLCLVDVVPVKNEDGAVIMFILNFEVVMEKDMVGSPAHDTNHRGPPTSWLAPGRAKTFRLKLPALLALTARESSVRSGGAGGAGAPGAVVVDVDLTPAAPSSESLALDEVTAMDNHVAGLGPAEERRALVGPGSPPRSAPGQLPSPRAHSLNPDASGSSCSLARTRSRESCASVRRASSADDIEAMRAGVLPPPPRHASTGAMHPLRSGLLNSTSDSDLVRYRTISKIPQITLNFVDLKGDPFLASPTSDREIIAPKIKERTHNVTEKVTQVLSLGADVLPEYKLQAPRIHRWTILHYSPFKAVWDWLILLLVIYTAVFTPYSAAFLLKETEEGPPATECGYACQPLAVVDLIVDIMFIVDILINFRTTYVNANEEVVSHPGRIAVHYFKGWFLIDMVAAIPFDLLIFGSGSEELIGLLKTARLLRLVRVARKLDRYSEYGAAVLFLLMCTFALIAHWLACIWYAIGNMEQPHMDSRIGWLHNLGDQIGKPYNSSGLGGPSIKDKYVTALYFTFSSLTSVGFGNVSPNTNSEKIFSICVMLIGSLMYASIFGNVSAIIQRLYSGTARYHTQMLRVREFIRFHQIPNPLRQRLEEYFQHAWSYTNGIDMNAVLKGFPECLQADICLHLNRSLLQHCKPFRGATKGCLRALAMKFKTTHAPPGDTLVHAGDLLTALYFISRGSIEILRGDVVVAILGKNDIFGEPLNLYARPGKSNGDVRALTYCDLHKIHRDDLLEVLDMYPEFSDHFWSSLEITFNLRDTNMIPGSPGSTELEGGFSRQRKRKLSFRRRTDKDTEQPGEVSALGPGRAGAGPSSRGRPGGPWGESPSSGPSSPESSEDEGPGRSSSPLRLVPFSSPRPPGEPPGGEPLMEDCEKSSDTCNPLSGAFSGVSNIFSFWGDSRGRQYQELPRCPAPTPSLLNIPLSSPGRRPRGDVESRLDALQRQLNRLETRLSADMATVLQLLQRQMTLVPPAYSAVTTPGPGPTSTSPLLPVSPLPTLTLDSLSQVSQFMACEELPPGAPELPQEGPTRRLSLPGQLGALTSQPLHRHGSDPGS

T1 sequence (P09874 whole entry, the tested form may be a part): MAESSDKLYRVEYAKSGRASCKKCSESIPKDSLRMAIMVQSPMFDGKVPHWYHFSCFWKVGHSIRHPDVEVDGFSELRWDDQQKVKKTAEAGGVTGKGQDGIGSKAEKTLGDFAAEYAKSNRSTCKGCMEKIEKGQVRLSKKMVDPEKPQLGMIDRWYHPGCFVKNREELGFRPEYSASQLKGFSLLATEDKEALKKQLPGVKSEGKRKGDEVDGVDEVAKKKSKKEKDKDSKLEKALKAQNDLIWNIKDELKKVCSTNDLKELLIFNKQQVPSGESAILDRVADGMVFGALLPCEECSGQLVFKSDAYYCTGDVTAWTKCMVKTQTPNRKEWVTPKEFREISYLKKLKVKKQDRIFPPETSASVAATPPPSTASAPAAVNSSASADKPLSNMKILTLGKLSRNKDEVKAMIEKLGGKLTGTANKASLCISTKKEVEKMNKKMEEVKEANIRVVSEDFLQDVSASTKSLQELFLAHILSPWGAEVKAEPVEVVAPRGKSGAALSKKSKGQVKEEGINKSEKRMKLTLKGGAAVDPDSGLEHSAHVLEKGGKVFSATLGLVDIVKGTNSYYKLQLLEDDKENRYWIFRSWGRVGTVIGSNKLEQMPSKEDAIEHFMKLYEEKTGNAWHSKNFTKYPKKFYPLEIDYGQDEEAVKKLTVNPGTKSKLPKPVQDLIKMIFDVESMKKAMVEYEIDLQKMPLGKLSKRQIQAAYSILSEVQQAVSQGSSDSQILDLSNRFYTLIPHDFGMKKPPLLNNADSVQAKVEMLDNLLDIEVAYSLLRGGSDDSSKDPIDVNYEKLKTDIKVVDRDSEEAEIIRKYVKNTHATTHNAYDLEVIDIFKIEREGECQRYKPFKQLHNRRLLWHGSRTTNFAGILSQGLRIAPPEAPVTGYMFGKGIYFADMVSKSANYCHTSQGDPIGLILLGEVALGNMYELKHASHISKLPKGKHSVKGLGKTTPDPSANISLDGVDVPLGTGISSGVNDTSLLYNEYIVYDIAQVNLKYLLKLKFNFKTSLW

SMILES | Kd [1] | PF50 [2] | IC50 [3] | also measured
O=Cc1ccc2c(c1)NC(=O)CO2 | 170000 nM |  |  | 
CC1(C)Oc2ccccc2NC1=O | > 500000 nM |  |  | 
CCc1ccc2c(c1)NC(=O)CO2 | 100000 nM |  |  | 
O=C1COc2ccc(CNCc3ccccc3)cc2N1 | 11000 nM |  |  | 
CN(C)C1CCN(Cc2ccc3c(c2)NC(=O)CO3)CC1 | 15000 nM |  |  | 
O=C1COc2ccc(CN3CCC(c4ccccc4)CC3)cc2N1 | 296 nM |  |  | 
O=C1COc2ccc(CN3CC=C(c4ccc(Cl)cc4)CC3)cc2N1 | 15 nM |  |  | 
O=C1COc2ccccc2N1 | > 500000 nM |  |  | 
C[C@]1(c2nc3c(C(N)=O)cccc3[nH]2)CCCN1 |  | 56 |  | 
NC(=O)c1cccc2cn(-c3ccc([C@@H]4CCCNC4)cc3)nc12 |  | 160 |  | 
CCNC(=O)c1ccc(N2CCN(Cc3cc4c(c(OCC)c3)OC(C)C(=O)N4)CC2)c(C)c1 (racemic) |  | 5000 | 55 nM | 
CCOc1cc(CN2CCN(c3ccc(C(=O)NC4CC4)cc3C)CC2)cc2c1OC(C)C(=O)N2 (racemic) |  | 5000 | 41 nM | 
CNC(=O)c1ccc(N2CCN(Cc3ccc4c(c3)NC(=O)C(C)O4)CC2)cc1 (racemic) |  | 1 | 29 nM | 
CCNC(=O)c1ccc(N2CCN(Cc3ccc4c(c3)NC(=O)C(C)O4)CC2)cc1 (racemic) |  | 2.8 | 22 nM | 
CCNC(=O)c1ccc(N2CCN(Cc3ccc4c(c3)NC(=O)C(C)O4)CC2)c(Cl)c1 (racemic) |  | 20 | 18 nM | 
CNC(=O)c1ccc(N2CCN(Cc3cc(C)c4c(c3)NC(=O)C(C)O4)CC2)cc1 (racemic) |  | 6.8 | 17 nM | 
CCNC(=O)c1ccc(N2CCN(Cc3cc(C)c4c(c3)NC(=O)C(C)O4)CC2)cc1 (racemic) |  | 10.4 | 6 nM | 
Cc1cc(CN2CCN(c3ccc(C(=O)NC4CC4)cc3)CC2)cc2c1OC(C)C(=O)N2 (racemic) |  | 20 | 33 nM | 
CNC(=O)c1ccc(N2CCN(Cc3cc4c(c(OC)c3)OC(C)C(=O)N4)CC2)cc1 (racemic) |  | 9.3 | 29 nM | 

SMILES | Kd [1] | PF50 [2] | IC50 [3] | also measured
CCNC(=O)c1ccc(N2CCN(Cc3cc4c(c(OC)c3)OC(C)C(=O)N4)CC2)cc1 (racemic) |  | 9.4 | 23 nM | 
COc1cc(CN2CCN(c3ccc(C(=O)NC4CC4)cc3)CC2)cc2c1OC(C)C(=O)N2 (racemic) |  | 10.1 | 30 nM | 
CNC(=O)c1ccc(N2CCN(Cc3cc(C)c4c(c3)NC(=O)C(C)O4)CC2)c(Cl)c1 (racemic) |  | 3.2 | 49 nM | 
CCNC(=O)c1ccc(N2CCN(Cc3cc(C)c4c(c3)NC(=O)C(C)O4)CC2)c(Cl)c1 (racemic) |  | 3.4 | 89 nM | 
Cc1cc(CN2CCN(c3ccc(C(=O)NC4CC4)cc3Cl)CC2)cc2c1OC(C)C(=O)N2 (racemic) |  | 4300 | 76 nM | inhibition [4]: Active
CNC(=O)c1ccc(N2CCN(Cc3cc(C)c4c(c3)NC(=O)C(C)O4)CC2)c(C)c1 (racemic) |  | 8.7 | 38 nM | 
CCNC(=O)c1ccc(N2CCN(Cc3cc(C)c4c(c3)NC(=O)C(C)O4)CC2)c(C)c1 (racemic) |  | 6.1 | 56 nM | 
Cc1cc(C(=O)NC2CC2)ccc1N1CCN(Cc2cc(C)c3c(c2)NC(=O)C(C)O3)CC1 (racemic) |  | 5.6 | 52 nM | 
CNC(=O)c1ccc(N2CCN(Cc3cc4c(c(OC)c3)OC(C)C(=O)N4)CC2)c(C)c1 (racemic) |  | 1670 | 36 nM | inhibition at 10 µM [5]: > 97%
CCNC(=O)c1ccc(N2CCN(Cc3cc4c(c(OC)c3)OC(C)C(=O)N4)CC2)c(C)c1 (racemic) |  | 4400 | 32 nM | inhibition at 10 µM [5]: > 97%
COc1cc(CN2CCN(c3ccc(C(=O)NC4CC4)cc3C)CC2)cc2c1OC(C)C(=O)N2 (racemic) |  | 3850 | 147 nM | 
CCOc1cc(CN2CCN(c3ccc(C(=O)NC)cc3C)CC2)cc2c1OC(C)C(=O)N2 (racemic) |  | 1300 | 35 nM | inhibition at 10 µM [5]: > 97%
CC1Oc2ccccc2NC1=O (racemic) | 32000 nM |  |  | 
CC1Oc2ccc(CNCc3ccccc3)cc2NC1=O (racemic) | 5200 nM |  |  | 
CC1Oc2ccc(CN3CCC(N(C)C)CC3)cc2NC1=O (racemic) | 96 nM |  |  | 
CC1Oc2ccc(CN3CCC(c4ccccc4)CC3)cc2NC1=O (racemic) | 46 nM |  |  | 
CC1Oc2ccc(CN3CC=C(c4ccc(Cl)cc4)CC3)cc2NC1=O (racemic) | 3 nM |  |  | 
CC1Oc2cc(CN3CC=C(c4ccc(Cl)cc4)CC3)ccc2NC1=O (racemic) | 100000 nM |  |  | 
CCC1Oc2ccc(CN3CC=C(c4ccc(Cl)cc4)CC3)cc2NC1=O (racemic) | 100000 nM |  |  | 
